Assay results taken from paper PMC9421655, “Novel Antagonist of the Type 2 Lysophosphatidic Acid Receptor (LPA2), UCM-14216, Ameliorates Spinal Cord Injury in Mice” (Journal of Medicinal Chemistry, 2022).

Key:
LPA2 [1] = target: T1, LPA2 (Homo sapiens, UniProt Q9HBW0); assay: Ca2+ mobilization assay, agonist activity at LPA2; assay type: cell-based; details: 10 μM compound
T1 construct: expressed in transfected cells
Method: The agonist activity at LPA2 receptors was determined at 10 μM concentration for all final compounds as previously described.[18]
Figure S1. Representative snapshots showing the lack of significant agonist activity of selected compounds. (A) 1; (B) 13; (C) 54; and (D) Ki16425. (E) Graphs show the agonist activity induced […]
stably expressing LPA2 receptor were plated on collagen-coated black-wall clear-bottom 96-well plates (Corning) at a density of 50000 cells/well and cultured overnight. The culture medium was then replaced with Fluo-4 NW dye loading solution containing 2.5 µM of probenecid and incubated […]
for 30 minutes at 37 °C followed by an additional 30 minutes at rt. Fluorescence changes were registered in a FluoStar Optima instrument (BMG Labtech) at 525 nm using an excitation wavelength of 494 nm. Each well was monitored for 240 s. 20 µL of the test compound from a 6x stock solution in assay buffer were added after 120 s of starting the measurement. Ca2+ transient increase was quantified by calculating the difference between maximum and baseline values for each […]
Graphs shown are representative of two to three independent experiments.

LPA2 mutant K22A = target: T2, LPA2 mutant K22A (Homo sapiens, UniProt Q9HBW0, K19A); assay: Ca2+ mobilization in McA-RH7777 cells transfected with LPA2 point mutant K22A; assay type: cell-based; details: 54 at 10 μM, 10 μM LPA
T2 construct: host or cells: McA-RH7777 (CRL-1601, ATCC), transient, pcDNA3.1

LPA2 [2] = target: T1, LPA2; assay: Free solution assay-compensated interferometric reader (FSA-CIR) binding, LPA2; details: receptor-containing nanovesicles, read-out: binding equilibrium constant (KD) at LPA2
Method: The assay was analyzed using a benchtop Compensated Interferometric Reader (CIR) that measured the light refractive index (ΔRI) change from binding-induced conformational and/or hydration changes produced by real time binding events in a sample (receptor containing nanovesicles plus compound) and compared to a nonbinding reference (RI matched buffer plus compound).[30] Finally, the interferometric signal from vector nanovesicles binding (nonspecific) to compound was subtracted from the LPA2,4–6 containing nanovesicles binding (total) to compound, to determine the specific binding interactions of the compounds to LPA2,4–6. The concentration-dependent change in RI (ΔRI) signal from the compounds to LPA2,4–6 or vector was fitted using the single site total vs nonspecific binding isotherm using GraphPad Prism. Specific KD values were determined by fitting the total minus nonspecific signal to a single site binding isotherm.
The detailed free solution assay method was described previously.[25],[26] All the compounds were dissolved in 100% DMSO, aliquoted, and frozen at −80 °C for 1 week. The compound dilution series was freshly prepared in 0.5% DMSO/PBS (pH 7.4) to keep the maximum compound in solution. […]

[3] = Parallel artificial membrane permeability assay (PAMPA); assay type: in vitro ADME; details: pH 7.4, PAMPA, PBS pH 7.4, 5 h, rt, read-out: P (cm/s), permeability value
Method: These studies were carried out as previously described with minor modifications.[41],[42] The assessment of the membrane permeability of synthesized compounds and propranolol and metoprolol as reference compounds was performed in a commercially available 96-well Corning Gentest precoated PAMPA plate system (Cultek S.L.U., Spain). Prior to use, the precoated PAMPA plate system was warmed to rt for 30 min and 300 μL of 200 μM solution of tested compound in 2% DMSO in PBS (pH 7.4) were added into wells in the receiver (donor) plate. Then, 200 μL of PBS were added into wells in the filter (acceptor) plate. The filter plate was placed on the receiver plate by slowly lowering the precoated PAMPA plate until it sits on the receiver plate. The assembly was incubated at rt for 5 h, and then buffer samples were collected carefully from each plate. The final concentrations of compound in both donor and acceptor wells were analyzed by HPLC-MS and quantification was estimated by using the peak area integration normalized with an internal standard. Permeability value of the compounds was calculated using the following formula: P (cm/s) = {−ln[1 – CA(t)/Ceq]}/[A(1/VD + 1/VA)t], where A = filter area (0.3 cm^2), VD = donor well volume (0.3 mL), VA = acceptor well volume (0.2 mL), t = incubation time (s), CA(t) = compound concentration (μM) in the acceptor well at time t, CD(t) = compound concentration (μM) in donor well at time t, and Ceq = [CD(t)VD + CA(t)VA]/(VD + VA). Assays were performed in duplicate, and the compound was tested in two different plates on different days.

[4] = Metabolic stability in mouse liver microsomes; assay type: in vitro ADME; details: male, CD-1, mouse, liver microsomes (pooled), 1 mg/mL protein, NADPH, 37 °C, read-out: stability (t1/2, min) MLMs
Method: (§1) Reactions were initiated by the addition of a suspension of mouse liver microsomes (MLMs) (male CD-1 mice pooled, Sigma-Aldrich) or human liver microsomes (HLMs) (male human pooled, Sigma-Aldrich), respectively, at a final protein concentration of 1 mg/mL. […] Aliquots of 100 μL were quenched at time zero and at seven points ranging to 2 h (MLM) or 4 h (HLM) by pouring into 100 μL of ice-cold acetonitrile. […] The relative disappearance of the compound under study over the course of the incubation was monitored by HPLC-MS using SIM mode. Concentrations were quantified by measuring the area under the peak ([M + H]^+) normalized with an internal standard and converted to the percentage of compound remaining, using the time zero peak area value as 100%. The natural logarithm of the remaining percentage versus time data for each compound was fit to a linear regression, and the slope was used to calculate the degradation half-life (t1/2).

[5] = Metabolic stability in human liver microsomes; assay type: in vitro ADME; details: male, liver microsomes (pooled), 1 mg/mL protein, NADPH, 37 °C, read-out: stability (t1/2, min) HLMs
Method: as §1

T1 sequence (Q9HBW0 whole entry, species assumed): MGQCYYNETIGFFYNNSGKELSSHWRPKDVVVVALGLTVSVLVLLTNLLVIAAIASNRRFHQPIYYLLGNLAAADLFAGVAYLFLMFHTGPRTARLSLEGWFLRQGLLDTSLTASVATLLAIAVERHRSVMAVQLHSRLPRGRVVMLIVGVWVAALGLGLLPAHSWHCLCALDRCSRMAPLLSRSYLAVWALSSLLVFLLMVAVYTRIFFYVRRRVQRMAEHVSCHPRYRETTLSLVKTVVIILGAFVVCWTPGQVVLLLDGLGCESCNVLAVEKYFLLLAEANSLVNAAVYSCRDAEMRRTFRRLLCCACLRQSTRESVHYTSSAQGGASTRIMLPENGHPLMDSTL
T2 sequence (Q9HBW0 whole entry K19A): as the sequence (Q9HBW0 whole entry, species assumed) above, with K19A counted along it

SMILES: Cc1[nH]nc(-c2ccc(OCc3nnn[nH]3)cc2O)c1Oc1ccc(Cl)cc1Cl [Compound 54]
- agonist activity at LPA2 receptor (LPA2 [1]): lack
- agonist/antagonist activity at LPA2 K22A mutant (LPA2 mutant K22A): no significant agonist nor antagonist activity
- Kd (LPA2 [2]): 1.3 nM
- Papp at 5 h, 200 μM [3]: 6.1 ×10⁻⁶ cm/s
- half-life at 1 μM [4]: 50 ± 6 min
- half-life at 5 μM [5]: 97 ± 15 min
